In ChEMBL document CHEMBL1201862, “PubChem BioAssay data set” (2004):
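Tested at 5 concentrations; 48 h exposure; 96-well plates; endpoints linearly interpolated, else capped at highest concentration. At the GI50, growth is halved.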 Active and inactive are the calls of the source. Cut-off read from the data, not from the text of the source: active = GI50 up to about 1.1 µM and inactive = higher.

How the values were obtained:
Test in all cases: NCI anticancer screen, dose series, 48 h
[1] = test system: IGROV-1
[2] = test system: PC-3
[3] = test system: DU-145
[4] = test system: MDA-MB-435
[5] = test system: NCI-H522
[6] = test system: HT-29
[7] = test system: U-251
[8] = test system: A549
[9] = test system: OVCAR-5
[10] = test system: CCRF-CEM
[11] = test system: SF-539
[12] = test system: HCT-116
[13] = test system: SK-MEL-28
[14] = test system: NCI-H226
[15] = test system: HCT-15
[16] = test system: SK-OV-3
[17] = test system: Malme-3M
[18] = test system: BT-549
[19] = test system: M14
[20] = test system: NCI-H460
[21] = test system: SN12C
[22] = test system: OVCAR-8
[23] = test system: OVCAR-4
[24] = test system: RXF 393
[25] = test system: UACC-62
[26] = test system: CAKI-1
[27] = test system: SK-MEL-2
[28] = test system: SW-620
[29] = test system: COLO 205
[30] = test system: SK-MEL-5
[31] = test system: HOP-62
[32] = test system: ACHN
[33] = test system: SNB-75
[34] = test system: K562
[35] = test system: UACC-257
[36] = test system: SF-268
[37] = test system: EKVX
[38] = test system: NCI-H23
[39] = test system: RPMI-8226
[40] = test system: A498
[41] = test system: MOLT-4
[42] = test system: SNB-19
[43] = test system: NCI/ADR-RES
[44] = test system: TK-10
[45] = test system: MDA-MB-231
[46] = test system: 786-0
[47] = test system: SF-295
[48] = test system: MCF7
[49] = test system: LOX IMVI
[50] = test system: KM12
[51] = test system: MDA-N
[52] = test system: HCC 2998
[53] = test system: T47D
[54] = test system: UO-31
[55] = test system: SR
[56] = test system: Hs-578T
[57] = test system: OVCAR-3
[58] = test system: HL-60
[59] = test system: HOP-92

C=CC[C@]1(/C=N/O)CN(S(=O)(=O)CC[Si](C)(C)C)C[C@H]2CC=CC[C@H]21
GI50 [1]: 15.4 µM (inactive)
GI50 [2]: 17.6 µM (inactive)
GI50 [3]: 20.6 µM (inactive)
GI50 [4]: 29.4 µM (inactive)
GI50 [5]: 15.8 µM (inactive)
GI50 [6]: 16.2 µM (inactive)
GI50 [7]: 17.7 µM (inactive)
GI50 [8]: 16 µM (inactive)
GI50 [9]: 21.7 µM (inactive)
GI50 [10]: 14 µM (inactive)
GI50 [11]: 18.2 µM (inactive)
GI50 [12]: 14.2 µM (inactive)
GI50 [13]: 22.6 µM (inactive)
GI50 [14]: 19.5 µM (inactive)
GI50 [15]: 38.4 µM
GI50 [16]: 24.2 µM (inactive)
GI50 [17]: 20.5 µM (inactive)
GI50 [18]: 28.5 µM (inactive)
GI50 [19]: 20.2 µM (inactive)
GI50 [20]: 18.4 µM (inactive)
GI50 [21]: 16.2 µM (inactive)
GI50 [22]: 24 µM (inactive)
GI50 [23]: 14.8 µM (inactive)
GI50 [24]: 13.6 µM (inactive)
GI50 [25]: 16.6 µM (inactive)
GI50 [26]: 17.1 µM (inactive)
GI50 [27]: 15 µM (inactive)
GI50 [28]: 18.1 µM (inactive)
GI50 [29]: 17.3 µM (inactive)
GI50 [30]: 29.4 µM (inactive)
GI50 [31]: 20 µM (inactive)
GI50 [32]: > 10 µM (inactive)
GI50 [33]: 21 µM (inactive)
GI50 [34]: 18.4 µM (inactive)
GI50 [35]: 21.2 µM (inactive)
GI50 [36]: 32.9 µM (inactive)
GI50 [37]: 25.7 µM (inactive)
GI50 [38]: 27.7 µM (inactive)
GI50 [39]: 13.4 µM (inactive)
GI50 [40]: 17.7 µM (inactive)
GI50 [41]: 16.4 µM (inactive)
GI50 [42]: 21.8 µM (inactive)
GI50 [43]: 39.8 µM (inactive)
GI50 [44]: 19.5 µM (inactive)
GI50 [45]: 24.4 µM (inactive)
GI50 [46]: 18.5 µM (inactive)
GI50 [47]: 15.6 µM (inactive)
GI50 [48]: 17.3 µM (inactive)
GI50 [49]: 19.7 µM (inactive)
GI50 [50]: 24.6 µM (inactive)
GI50 [51]: 20.3 µM (inactive)
GI50 [52]: 16.7 µM (inactive)
GI50 [53]: 26.4 µM (inactive)
GI50 [54]: 26.3 µM (inactive)

CCOC(=O)c1c(SC(=O)c2ccc(OC)cc2)n(-c2ccccc2)c(=S)n(-c2ccccc2)c1=O
GI50 [1]: 21.1 µM (inactive)
GI50 [55]: 29.9 µM (inactive)
GI50 [2]: 59.3 µM (inactive)
GI50 [3]: > 100 µM (inactive)
GI50 [4]: 54.6 µM (inactive)
GI50 [5]: 49.4 µM (inactive)
GI50 [6]: 46.1 µM (inactive)
GI50 [7]: 33.6 µM (inactive)
GI50 [8]: > 100 µM (inactive)
GI50 [9]: > 100 µM (inactive)
GI50 [10]: 35.6 µM (inactive)
GI50 [11]: 21.2 µM (inactive)
GI50 [12]: 23.3 µM (inactive)
GI50 [13]: > 100 µM (inactive)
GI50 [14]: 84.1 µM (inactive)
GI50 [15]: 23.4 µM
GI50 [16]: > 100 µM (inactive)
GI50 [17]: > 100 µM (inactive)
GI50 [19]: 29.7 µM (inactive)
GI50 [20]: 84.7 µM (inactive)
GI50 [21]: 76.9 µM (inactive)
GI50 [22]: 21.8 µM (inactive)
GI50 [56]: 45.4 µM (inactive)
GI50 [23]: > 100 µM (inactive)
GI50 [24]: 49.3 µM (inactive)
GI50 [25]: > 100 µM (inactive)
GI50 [26]: > 100 µM (inactive)
GI50 [28]: 26.7 µM (inactive)
GI50 [29]: 89.1 µM (inactive)
GI50 [57]: 50 µM (inactive)
GI50 [31]: > 100 µM (inactive)
GI50 [32]: > 100 µM (inactive)
GI50 [58]: 40.3 µM (inactive)
GI50 [33]: > 100 µM (inactive)
GI50 [34]: 42.5 µM (inactive)
GI50 [35]: > 100 µM (inactive)
GI50 [36]: 18.6 µM (inactive)
GI50 [37]: > 100 µM (inactive)
GI50 [38]: 61.9 µM (inactive)
GI50 [40]: 27.3 µM (inactive)
GI50 [41]: 22.5 µM (inactive)
GI50 [42]: > 100 µM (inactive)
GI50 [43]: > 100 µM (inactive)
GI50 [44]: > 100 µM (inactive)
GI50 [45]: 24 µM (inactive)
GI50 [59]: > 100 µM (inactive)
GI50 [46]: 37.8 µM (inactive)
GI50 [47]: > 100 µM (inactive)
GI50 [48]: 30.9 µM (inactive)
GI50 [49]: 36.3 µM (inactive)
GI50 [50]: > 100 µM (inactive)
GI50 [51]: > 100 µM (inactive)
GI50 [52]: > 100 µM (inactive)
GI50 [53]: > 100 µM (inactive)

Cc1cc2c(cc1Cl)SC(NNCCO)=NS2(=O)=O
GI50 [1]: > 100 µM (inactive)
GI50 [55]: > 100 µM (inactive)
GI50 [2]: 86.3 µM (inactive)
GI50 [3]: > 100 µM (inactive)
GI50 [4]: > 100 µM (inactive)
GI50 [6]: > 100 µM (inactive)
GI50 [7]: > 100 µM (inactive)
GI50 [10]: > 100 µM (inactive)
GI50 [11]: > 100 µM (inactive)
GI50 [12]: > 100 µM (inactive)
GI50 [13]: > 100 µM (inactive)
GI50 [14]: > 100 µM (inactive)
GI50 [15]: > 100 µM
GI50 [16]: > 100 µM (inactive)
GI50 [18]: > 100 µM (inactive)
GI50 [19]: > 100 µM (inactive)
GI50 [20]: > 100 µM (inactive)
GI50 [22]: > 100 µM (inactive)
GI50 [56]: > 100 µM (inactive)
GI50 [23]: > 100 µM (inactive)
GI50 [24]: > 100 µM (inactive)
GI50 [25]: 97.7 µM (inactive)
GI50 [26]: > 100 µM (inactive)
GI50 [27]: > 100 µM (inactive)
GI50 [28]: > 100 µM (inactive)
GI50 [29]: > 100 µM (inactive)
GI50 [30]: 73.1 µM (inactive)
GI50 [31]: > 100 µM (inactive)
GI50 [32]: > 100 µM (inactive)
GI50 [58]: > 100 µM (inactive)
GI50 [33]: > 100 µM (inactive)
GI50 [34]: 56.2 µM (inactive)
GI50 [35]: > 100 µM (inactive)
GI50 [36]: > 100 µM (inactive)
GI50 [37]: > 100 µM (inactive)
GI50 [38]: > 100 µM (inactive)
GI50 [39]: > 100 µM (inactive)
GI50 [41]: > 100 µM (inactive)
GI50 [42]: > 100 µM (inactive)
GI50 [43]: > 100 µM (inactive)
GI50 [44]: > 100 µM (inactive)
GI50 [45]: > 100 µM (inactive)
GI50 [59]: > 100 µM (inactive)
GI50 [46]: > 100 µM (inactive)
GI50 [47]: > 100 µM (inactive)
GI50 [48]: > 100 µM (inactive)
GI50 [49]: > 100 µM (inactive)
GI50 [50]: > 100 µM (inactive)
GI50 [52]: > 100 µM (inactive)
GI50 [53]: > 100 µM (inactive)
GI50 [54]: > 100 µM (inactive)
